Laboratory results as given in US20030171371A1, “Immunosuppressant n-acyles homoserine lactones” (priority 2000, published 2003).
pIC50: −log10 of the molar value.

Key:
[1] = tested on: murine splenocytes; experiment: ConA mitogen-stimulated proliferation of murine splenocytes ([3H]-thymidine incorporation); format: cell-based, mouse (BALB/c); settings: for effect on ConA induced splenocyte proliferation (cpm vs concentration): FIG. 1
Method: Proliferation was assessed by the incorporation of [^3H]-thymidine into DNA. Eight-week-old female BALB/c mice were obtained from Harlan (Bicester, Oxon, UK) and given food and water ad libitum. Splenocyte suspensions were prepared by removing the spleens and placing them into RPMI 1640 medium. The spleens were forced through 70-μm-pore-size wire gauzes using the plunger from a 5-ml syringe to produce a single cell suspension. […] Leucocytes were washed twice with RPMI 1640 medium with 2% (vol/vol) foetal calf serum (FCS) and resuspended in complete cell culture medium (CTCM) consisting of RPMI 1640 medium with 5% FCS, 2 mM L-glutamine, and 5×10^−5 M 2-mercaptoethanol. HSL compounds were tested at doubling down dilutions ranging from 1 mM to 0.1 μM in a final volume of 200 μl of CTCM, containing ConA (Sigma, Poole, UK) at 1 μg/ml and 100,000 spleen cells. Following incubation for 48 h at 37° C. in 5% CO2-air, 0.25 μCi [^3H]-thymidine (Amersham) in 10 μl volume made up in RPMI 1640 medium was added and the cells were incubated for a further 24 h. Cells were harvested onto fibreglass filters with a Packard filtermate harvester. After the addition of 25 μl of MicroScint-O (Packard) to each well the filters were counted with the Packard TopCount scintillation counter.
Mitogen (Concanavalin A) induced murine splenocyte proliferation was indicated by the incorporation of tritated thymidine into the DNA in the mouse spleen cells as shown by counts per minute using the scintillation counter. The inhibitory effect of an HSL compound being tested on cell proliferation was indicated by a reduction in counts per minute.

[2] = tested on: human PBMC; experiment: ConA mitogen-stimulated proliferation of human PBMC ([3H]-thymidine incorporation); format: cell-based; settings: FIG. 2
Method: II. ConA Mitogen-Stimulated Proliferation of Human PBMC
Blood specimens were obtained with consent from healthy human volunteers. Human peripheral blood mononuclear cells (PBMC) were isolated from heparinised whole blood by buoyant density centrifugation over Histopaque 1077 (Sigma, Poole, UK) at 600 g for 20 minutes. PBMC harvested from the ‘buffy’ layers were washed twice with RPMI 1640 medium and resuspended in CTCM. HSL compounds were tested at similar dilutions as for murine splenocytes in 200 μl of CTCM, containing 1 μg/ml of ConA and 100,000 PBMC. Human PBMC were incubated for 48 h at 37° C. in 5% CO2-air, followed by pulsing with 0.25 μCi [^3H]-thymidine (see above). After a further incubation of 24 h cells were harvested onto fibreglass filters and then counted in the presence of MicroScint-O with the Packard TopCount.
Concanavalin induced cell proliferation of human peripheral blood mononuclear cells (PBMC) was tracked, as described in I above, by a measurement of counts per minute using the scintillation counter. The inhibitory effect of an HSL compound being tested on cell proliferation was indicated by a reduction in counts per minute.
Columns B, C and D represent different sources of human PBMC samples used.

[3] = tested on: TNF-alpha production from LPS-stimulated human PBMC; experiment: TNF-alpha production from LPS-stimulated human PBMC (sandwich ELISA); format: cell-based; settings: FIG. 3, FIG. 5
Method: Bacterial lipopolysaccharide (LPS) stimulates the production of a variety of cytokines, including TNF-alpha, from human PBMC; these cytokines in turn influence the development of T cells, supporting a T helper 1 conducive milieu. Human PBMC prepared from whole blood by buoyant density centrifugation were resuspended in CTCM. […] Following incubation for 24 h at 37° C. in 5% CO2-air, the cell culture supernatants were collected and tested for TNF-alpha levels by ‘sandwich’ ELISA. Briefly, 96-well Nunc MaxiSorp (Life Technologies, Paisley, UK) plates were coated with 50 μl of a 2 μg/ml solution of mouse anti-human TNF-alpha monoclonal antibody (Pharmingen, UK) in 0.05 M carbonate/bicarbonate buffer, pH 9.6 overnight at 4° C. […] Following three washes with PBS-Tween, 50 μl of cell culture supernatants were added and incubated overnight at 4° C.; standard human TNF-alpha (Pharmingen, UK) ranging from 2000 to 31.25 pg/ml were included for each plate. […] Following four washes, the bound biotinylated antibody was detected with 50 μl of a 1:1,000 dilution of Streptavidin-peroxidase (Pharmingen, UK). At the end of an hour incubation at room temperature, the plates were thoroughly washed six times with PBS-Tween and the assay was developed by the addition of 100 μl of 0.1 mg/ml of tetramethyl benzidine subtrate (Sigma, Poole, UK) in 0.1 M sodium acetate buffer, pH 6 containing 0.03% H2O2. The enzyme reaction was stopped with 50 μl of 2.5 M H2SO4 after an incubation of 10 minutes at room temperature and the development was read at 450 nm with a spectrophotometric 96-well plate reader (Dynex).

[4] = tested on: TNF-a production by LPS-stimulated adherent murine peritoneal macrophages; settings: literature report; cited from earlier work
[5] = tested on: murine spleen cells; settings: literature report; cited from earlier work

Molecule: N-(3-Hydroxy-9-tetradecenoyl)-L-homoserine lactone [Example 24]
- pIC50 ([1]; Experiment I, ConA 1 μg/ml, 100,000 spleen cells, read-out: IC50, inhibition of ConA induced murine splenocyte proliferation (column A)): 4.82

Molecule: CCCCCCCCCCCC(=O)CC(=O)N[C@H]1CCOC1=O [Example 11, N-(3-Oxotetradecanoyl)-L-homoserine lactone]
- effect on proliferation of human PBMC stimulated with Concanavalin A (cpm vs concentration) [2]: inhibited proliferation of human PBMC
- effect on LPS induced TNF-α secretion by human PBMC [3]: inhibited the secretion of the T helper 1-supporting cytokine TNF-α

Molecule: CCCCCCCCCC(=O)CC(=O)N[C@H]1CCOC1=O [Example 6, N-(3-Oxododecanoyl)-L-homoserine lactone]
- effect on proliferation of human PBMC stimulated with Concanavalin A (cpm vs concentration) [2]: inhibited proliferation of human PBMC
- effect on TNF-a production by LPS-stimulated adherent murine peritoneal macrophages [4]: inhibiting
- effect on concavalin A mitogen stimulated proliferation of murine spleen cells [5]: inhibiting
- effect on LPS induced TNF-α secretion by human PBMC [3]: inhibited the secretion of the T helper 1-supporting cytokine TNF-α
- effect on ConA induced splenocyte proliferation (cpm vs concentration) [1]: inhibits splenocyte proliferation

Molecule: CCCCCC(=O)CC(=O)N[C@H]1CCOC1=O [OOHL, N-(3-oxooctanoyl)-L-homoserine lactone]
- effect on ConA induced splenocyte proliferation (cpm vs concentration) [1]: failed to inhibit proliferation

Molecule: CCCC(=O)CC(=O)N[C@H]1CCOC1=O [OHHL, N-(3-oxohexanoyl)-L-homoserine lactone]
- effect on LPS induced TNF-α secretion by human PBMC [3]: difference in activity between OHHL and OdDHL is marked
